Measured values from patent US10544106B2, “Certain chemical entities, compositions, and methods” (NeuPharma, Inc., priority 2016, dated 2020).

Target: BTK (Homo sapiens (Human), UniProt Q06187)
Assay: Z'-LYTE kinase inhibition assay against BTK
Type: biochemical
Settings: for inhibition at 0.1 µM: compound at 100 nM, ATP concentration at Km; for IC50: series of concentrations, GraphPad Prism 5
Protocol: Inhibitory activities of compounds against BTK, EGFR T790M, EGFR L858R, and EGFR L858R/T790M were measured using Z′-LYTE® Method from Life Technologies as briefly described in the following.
Test Compounds are screened in 1% DMSO (final) in the well. For 10 point titrations, 3-fold serial dilutions are conducted from the starting concentration. All ATP Solutions are diluted to a 4× working concentration in Kinase Buffer (50 mM HEPES pH 7.5, 0.01% BRIJ-35, 10 mM MgCl2, 1 mM EGTA). Peptide/Kinase Mixtures are diluted to a 2× working concentration in the appropriate Kinase Buffers as described below. • (i) Peptide/Kinase Mixtures for measurement of EGFR (ErbB1) L858R: • The 2×EGFR (ErbB1) L858R/Tyr 04 mixture is prepared in 50 mM HEPES pH 7.5, 0.01% BRIJ-35, 10 mM MgCl2, 4 mM MnCl2. 1 mM EGTA, 2 mM DTT. The final 10 μL Kinase Reaction consists of 0.2-1.68 ng EGFR (ErbB1) L858R and 2 μM Tyr 04 in 50 mM HEPES pH 7.5, 0.01% BRIJ-35, 10 mM MgCl2, 2 mM MnCl2, 1 mM EGTA, 1 mM DTT. After the 1 hour Kinase Reaction incubation, 5 μL of a 1:64 dilution of Development Reagent B is added. • (ii) Peptide/Kinase Mixtures for measurement of EGFR (ErbB1) T790M: The 2×EGFR (ErbB1) T790M/Tyr 04 mixture is prepared in 50 mM HEPES pH 6.5, 0.01% BRIJ-35, 10 mM MgCl2, 1 mM EGTA, 0.02% NaN3. The final 10 μL Kinase Reaction consists of 3.9-30.2 ng EGFR (ErbB1) T790M and 2 μM Tyr 04 in 50 mM HEPES pH 7.0, 0.01% BRIJ-35, 10 mM MgCl2, 1 mM EGTA, 0.01% NaN3. After the 1 hour Kinase Reaction incubation, 5 μL of a 1:64 dilution of Development Reagent B is added. • (iii) Peptide/Kinase Mixtures for measurement of EGFR (ErbB1) L858R/T790M: The 2×EGFR (ErbB1) T790M L858R/Tyr 04 mixture is prepared in 50 mM HEPES pH 6.5, 0.01% BRIJ-35, 10 mM MgCl2, 1 mM EGTA, 0.02% NaN3. The final 10 μL Kinase Reaction consists of 0.38-4.22 ng EGFR (ErbB1) T790M L858R and 2 μM Tyr 04 in 50 mM HEPES pH 7.0, 0.01% BRIJ-35, 10 mM MgCl2, 1 mM EGTA, 0.01% NaN3. After the 1 hour Kinase Reaction incubation, 5 μL of a 1:64 dilution of Development Reagent B is added. • (iv) Peptide/Kinase Mixtures for measurement of BTK: The 2×BTK/Tyr 01 mixture is prepared in 50 mM HEPES pH 7.5, 0.010/BRIJ-35, 10 mM MgCl2, 1 mM EGTA. The final 10 μL Kinase Reaction consists of 1.04-10.4 ng BTK and 2 μM Tyr 01 in 50 mM HEPES pH 7.5, 0.01% BRIJ-35, 10 mM MgCl2, 1 mM EGTA. After the 1 hour Kinase Reaction incubation, 5 μL of a 1:256 dilution of Development Reagent B is added.
Reaction starts by 30-second shaking of mixture consisting of 2.5 μL 4× test compound, 5 μL 2× kinase reaction mixture and 2.5 μL 4×ATP Solution on Bar-coded Corning, low volume NBS, black 384-well plate (Corning Cat. #3676). Then the mixture is incubated for 60-minute at room temperature for the kinase reaction, followed by addition of 5 μL of a 1:1024 dilution of development reagent A and 30-second plate shake. The mixture is then incubated for another 60-minute at room temperature for development reaction. Finally fluorescence is read by plate reader.
The Z′-LYTE assay was carried out with ATP concentration at Km. The scale utilized in Tables 2-6 is as follows: ++ more than 50% inhibition and + less than 50% inhibition.
To determine IC50 of a compound against a kinase, a series of concentrations of the compound were tested for the inhibition. IC50 was calculated by plotting the concentration of compound vs the percentage of inhibition in treated wells using GraphPad Prism 5. […] The scale utilized in Table 7 is as follows: ++ less than 100 nM and + greater than 100 nM.

Sequence of BTK (Q06187 whole entry): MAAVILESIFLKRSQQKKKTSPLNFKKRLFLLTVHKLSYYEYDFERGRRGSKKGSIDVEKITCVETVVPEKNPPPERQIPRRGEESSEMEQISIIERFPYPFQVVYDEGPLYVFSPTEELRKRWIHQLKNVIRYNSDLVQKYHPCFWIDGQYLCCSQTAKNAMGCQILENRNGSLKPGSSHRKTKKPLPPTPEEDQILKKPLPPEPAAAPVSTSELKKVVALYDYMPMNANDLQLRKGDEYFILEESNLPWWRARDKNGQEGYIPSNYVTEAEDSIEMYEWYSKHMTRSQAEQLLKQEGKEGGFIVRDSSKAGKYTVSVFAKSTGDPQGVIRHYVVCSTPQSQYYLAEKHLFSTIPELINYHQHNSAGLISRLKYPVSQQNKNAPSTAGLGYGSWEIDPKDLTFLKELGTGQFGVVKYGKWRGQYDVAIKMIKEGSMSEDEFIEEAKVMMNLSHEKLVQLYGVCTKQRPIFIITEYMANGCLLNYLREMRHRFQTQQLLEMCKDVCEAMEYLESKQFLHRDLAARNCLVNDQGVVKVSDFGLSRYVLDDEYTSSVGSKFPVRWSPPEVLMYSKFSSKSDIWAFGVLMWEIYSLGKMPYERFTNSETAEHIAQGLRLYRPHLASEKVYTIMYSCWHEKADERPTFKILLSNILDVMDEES

| SMILES | inhibition at 0.1 µM | IC50 |
| --- | --- | --- |
| C=CC(=O)N1CCC(c2cc(-c3ccc(C(=O)Nc4cccc(C(F)(F)F)c4)cc3)n3cnccc23)C1 (stereo not shown) [C058, 4-(5-(1-acryloylpyrrolidin-3-yl)pyrrolo[1,2-c]pyrimidin-7-yl)-N-(3-(trifluoro-methyl)phenyl)benzamide] | < 50% | – |
| C=CC(=O)Nc1cccc(-c2cc(-c3ccccc3)cc3c(N)ncnc23)c1 [C016, N-(3-(4-amino-6-phenylquinazolin-8-yl)phenyl)acrylamide] | < 50% | – |
| C=CC(=O)N1CCCC(c2cc(-c3cccnc3)cc3cncnc23)C1 (stereo not shown) [C031, 1-(3-(6-(pyridin-3-yl)quinazolin-8-yl)piperidin-1-yl)prop-2-en-1-one] | < 50% | – |
| C=CC(=O)N1CCC(c2cc(-c3cccnc3)cc3cncnc23)C1 (stereo not shown) [C043, 1-(3-(6-(pyridin-3-yl)quinazolin-8-yl)pyrrolidin-1-yl)prop-2-en-1-one] | < 50% | – |
| C=CC(=O)Nc1cccc(-c2cc(-c3ccc(Oc4cc(C(F)(F)F)ccn4)cc3)cc3cncnc23)c1 [C175, N-(3-(6-(4-((4-(trifluoromethyl)pyridin-2-yl)oxy)phenyl)quinazolin-8-yl)phenyl)acrylamide] | > 50% | < 0.1 µM |
| CC#CC(=O)N1CCC(c2nc(-c3ccc(C(=O)Nc4ccccn4)c(F)c3)n3c(N)nccc23)C1 (stereo not shown) [C231, 4-(5-amino-1-(1-(but-2-ynoyl)pyrrolidin-3-yl)imidazo[1,5-c]pyrimidin-3-yl)-2-fluoro-N-(pyridin-2-yl)benzamide] | – | < 0.1 µM |
| C=CC(=O)Nc1cccc(-n2c(-c3ccccc3)nc3cnc(N)nc32)c1 [C024, N-(3-(2-amino-8-phenyl-9H-purin-9-yl)phenyl)acrylamide] | < 50% | – |
| C=CC(=O)N1CCC(n2c(-c3ccccc3)nc3cncnc32)C1 (stereo not shown) [C021, 1-(3-(8-phenyl-9H-purin-9-yl)pyrrolidin-1-yl)prop-2-en-1-one] | < 50% | – |
| C=CC(=O)Nc1cccc(-c2cc(-c3ccc(C(=O)Nc4ccccn4)c(F)c3)cc3cncnc23)c1 [C132, 4-(8-(3-acrylamidophenyl)quinazolin-6-yl)-2-fluoro-N-(pyridin-2-yl)benzamide] | > 50% | < 0.1 µM |
| C=CC(=O)N1CCC(c2cc(-c3ccc(C(=O)Nc4ccccn4)cc3)cc3cncnc23)C1 (stereo not shown) [C079, 4-(8-(1-acryloylpyrrolidin-3-yl)quinazolin-6-yl)-N-(pyridin-2-yl)benzamide] | < 50% | – |
| C=CC(=O)N1CCC(c2cc(-c3ccc(C(=O)Nc4ncccc4F)cc3)c(N)c3cncnc23)C1 (stereo not shown) [C215, 4-(8-(1-acryloylpyrrolidin-3-yl)-5-amino-quinazolin-6-yl)-N-(3-fluoropyridin-2-yl)benzamide] | < 50% | – |
| C=CC(=O)Nc1cccc(-c2cc(-c3ccc(C)nc3)cc3cnc(N)nc23)c1 [C038, N-(3-(2-amino-6-(6-methylpyridin-3-yl)quinazolin-8-yl)phenyl)acrylamide] | > 50% | < 0.1 µM |
| C=CC(=O)Nc1cccc(-c2cc(-c3ccccc3C#N)cc3cnc(N)nc23)c1 [C091, N-(3-(2-amino-6-(2-cyanophenyl)quinazolin-8-yl)phenyl)acrylamide] | > 50% | < 0.1 µM |
| C=CC(=O)N1CCC(c2cc(-c3ccc(Oc4cc(C(F)(F)F)ccn4)cc3F)c(N)c3cncnc23)C1 (stereo not shown) [C195, 1-(3-(5-amino-6-(2-fluoro-4-((4-(trifluoro-methyl)pyridin-2-yl)oxy)phenyl)quinazolin-8-yl)pyrrolidin-1-yl)prop-2-en-1-one] | < 50% | > 0.1 µM |
| C=CC(=O)N1CCC(c2cc(-c3ccc(Oc4ccccn4)c(OC)c3)n3cnccc23)C1 (stereo not shown) [C167, 1-(3-(7-(3-methoxy-4-(pyridin-2-yloxy)phenyl)pyrrolo[1,2-c]pyrimidin-5-yl)pyrrolidin-1-yl)prop-2-en-1-one] | < 50% | – |
| C=CC(=O)Nc1cccc(-c2cc(-c3ccccc3)cc3cnc(N)nc23)c1 [C005, N-(3-(2-amino-6-phenylquinazolin-8-yl)phenyl)acrylamide] | > 50% | < 0.1 µM |
| C=CC(=O)Nc1cccc(-c2cc(-c3ccccc3Cl)cc3cnc(-c4ccccc4)nc23)c1 [C002, N-(3-(6-(2-chlorophenyl)-2-phenylquinazolin-8yl)phenyl)acrylamide] | < 50% | – |
| C=CC(=O)Nc1cccc(-c2cc(-c3ccc(Oc4ccccc4)cc3)n3cnccc23)c1 [C057, N-(3-(7-(4-phenoxyphenyl)pyrrolo[1,2-c]pyrimidin-5-yl)phenyl)acrylamide] | < 50% | – |
| C=CC(=O)N1CCC(c2cc(-c3ccc(Oc4ccccn4)cc3OC)cc3cnc(N)nc23)C1 (stereo not shown) [C168, 1-(3-(2-amino-6-(2-methoxy-4-(pyridin-2-yloxy)phenyl)quinazolin-8-yl)pyrrolidin-1-yl)prop-2-en-1-one] | < 50% | – |
| C=CC(=O)N1CCC(c2cc(-c3ccc(Oc4ccccc4)cc3)n3cnccc23)C1 (stereo not shown) [C063, 1-(3-(7-(4-phenoxyphenyl)pyrrolo[1,2-c]pyrimidin-5-yl)pyrrolidin-1-yl)prop-2-en-1-one] | > 50% | – |
| C=CC(=O)N1CCCC(c2nc(-c3ccc(Oc4ncccc4F)c(OC)c3)n3c(N)nccc23)C1 (stereo not shown) [C232, 1-(3-(5-amino-3-(4-((3-fluoropyridin-2-yl)oxy)-3-methoxyphenyl)imidazo[1,5-c]pyrimidin-1-yl)piperidin-1-yl)prop-2-en-1-one] | – | < 0.1 µM |
| CC#CC(=O)N1CCC(c2nc(-c3ccc(Oc4ncccc4C#N)cc3)n3c(N)nccc23)C1 (stereo not shown) [C229, 2-(4-(5-amino-1-(1-(but-2-ynoyl)pyrrolidin-3-yl)imidazo[1,5-c]pyrimidin-3-yl)phenoxy)nicotinonitrile] | – | < 0.1 µM |
| C=CC(=O)Nc1cccc(-c2cc(-c3ccc(C(=O)Nc4ccccc4)nc3)cc3cncnc23)c1 [C050, 5-(8-(3-acrylamidophenyl)quinazolin-6-yl)-N-phenylpicolinamide] | > 50% | – |
| C=CC(=O)N1CCC(c2cc(-c3ccc(Oc4ccccn4)c(F)c3)cc3cncnc23)C1 (stereo not shown) [C160, 1-(3-(6-(3-fluoro-4-(pyridin-2-yloxy)phenyl)quinazolin-8-yl)pyrrolidin-1-yl)prop-2-en-1-one] | > 50% | – |
| C=CC(=O)Nc1cccc(-c2cc(-c3ccc(C(=O)Nc4cc(C)ccn4)cc3)cc3cncnc23)c1 [C041, 4-(8-(3-acrylamidophenyl)quinazolin-6-yl)-N-(4-methylpyridin-2-yl)benzamide] | > 50% | – |
| C=CC(=O)Nc1cccc(-c2cc(-c3ccc(C(=O)Nc4cc(C5CC5)ccn4)cc3Cl)c(N)c3cncnc23)c1 [C200, 4-(8-(3-acrylamidophenyl)-5-aminoquinazolin-6-yl)-3-chloro-N-(4-cyclopropylpyridin-2-yl)benzamide] | > 50% | – |
| C=CC(=O)Nc1cccc(-c2cc(-c3ccc(Oc4cc(C(N)=O)ccn4)cc3)cc3cncnc23)c1 [C191, 2-(4-(8-(3-acrylamidophenyl)quinazolin-6-yl)phenoxy)isonicotinamide] | > 50% | < 0.1 µM |
